Assay results: patent US20150266857A1, “NOVEL 3-INDOL SUBSTITUTED DERIVATIVES, PHARMACEUTICAL COMPOSITIONS AND METHODS FOR USE” (iTeos Therapeutics, priority 2014, published 2015)

molecular target: T1, human glioblastoma A172 cells, naturally expressing hTDO2 (Homo sapiens, UniProt P48775); assay: Cellular assay for TDO2 activity, A172 cells; format: cell-based; conditions: overnight incubation, kynurenine in supernatant
T1 construct: human glioblastoma A172 cells, naturally expressing hTDO2; endogenous in cells; host or cells: human glioblastoma A172 cells (ATCC CRL-1620)
Protocol: The compounds of formula I inhibit the activity of human TDO2 in cells that constitutively express TDO2, such as A172 cells. A172 is a cell line derived from human brain glioblastoma cells. The cells are available from the American Type Culture Collection (ATCC®) as CRL-1620™
The assay (adapted from Pilotte L et al., Proc Natl Acad Sci USA, 2012, 109(7), 2497-502) was performed in 96-well flat bottom plates seeded with human glioblastoma A172 cells, naturally expressing hTDO2 (prepared as described in Tilman et al., Mol Cancer, 2007, 17(6), 80), at a concentration of 1.25×10^4 cells/well in a final volume of 200 μL. To determine TDO, the cells were incubated overnight at 37° C. at 5% CO2 in IMDM (Invitrogen) supplemented with 2% FBS and 2% penicillin/streptomycin in the presence of the compounds of the present invention, at different concentrations.
The plates were then centrifuged 5 min at 1000 rpm, and 100 μL of the supernatant were collected in a conical plate, 30 uL of TCA 30% were added and a further centrifugated at 3000×g for 10 minutes. 100 μL of the supernatant were collected in a flat bottomed plate and 100 μL of 2% (w/v) 4-(dimethylamino)-benzaldehyde in acetic acid and incubated for 5 min at room temperature. Kynurenine concentrations were determined by measuring the absorbance at 480 nm. A standard curve was made with pure kynurenine. The TDO activity was measured as described above using ten serial concentrations of the compounds of the present invention. Data were fitted using the Prism™ software (GraphPad Software, Inc.) using standard parameters.

T1 sequence (P48775 whole entry): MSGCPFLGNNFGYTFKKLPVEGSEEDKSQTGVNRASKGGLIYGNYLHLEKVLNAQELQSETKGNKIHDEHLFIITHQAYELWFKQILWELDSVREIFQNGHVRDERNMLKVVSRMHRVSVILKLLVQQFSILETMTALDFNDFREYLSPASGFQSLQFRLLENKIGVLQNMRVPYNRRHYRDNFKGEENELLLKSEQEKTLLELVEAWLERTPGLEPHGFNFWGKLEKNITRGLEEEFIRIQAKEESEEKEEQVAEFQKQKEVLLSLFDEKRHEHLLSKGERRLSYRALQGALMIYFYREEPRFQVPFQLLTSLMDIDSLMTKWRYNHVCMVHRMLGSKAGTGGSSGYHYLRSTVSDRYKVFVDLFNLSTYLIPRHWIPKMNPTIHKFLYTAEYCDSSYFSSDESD

IC50	SMILES
0.197 µM	O=C1NC(=O)c2cc(-c3c[nH]c4cc(F)ccc34)ccc21 [Compound 132, 5-(6-fluoro-1H-indol-3-yl)isoindoline-1,3-dione]
0.508 µM	O=C1Cc2ccc(-c3c[nH]c4cc(F)ccc34)cc2N1 [Compound 92, 6-(6-fluoro-1H-indol-3-yl)indolin-2-one]
0.478 µM	CS(=O)(=O)NCc1nc2ccc(-c3c[nH]c4ccccc34)cc2o1 [Compound 114, N-((6-(1H-indol-3-yl)benzo[d]oxazol-2-yl)methyl)methanesulfonamide]
3.28 µM	NC(=O)Cn1c(=O)oc2ccc(-c3c[nH]c4cc(F)ccc34)cc21 [Compound 69, 2-(5-(6-fluoro-1H-indol-3-yl)-2-oxobenzo[d]oxazol-3(2H)-yl)acetamide]
0.284 µM	Fc1ccc2c(-c3ccc4nc(CC5CCNCC5)oc4c3)c[nH]c2c1 [Compound 113, 6-(6-fluoro-1H-indol-3-yl)-2-(piperidin-4-ylmethyl)benzo[d]oxazole]
0.298 µM	CN1CCN(C(=O)CCn2ncc3cc(-c4c[nH]c5cc(F)ccc45)ccc32)CC1 [Compound 87, 3-(5-(6-fluoro-1H-indol-3-yl)-1H-indazol-1-yl)-1-(4-methylpiperazin-1-yl)propan-1-one]
0.646 µM	O=C(CCn1ncc2cc(-c3c[nH]c4cc(F)ccc34)ccc21)N1CCOCC1 [Compound 86, 3-(5-(6-fluoro-1H-indol-3-yl)-1H-indazol-1-yl)-1-morpholinopropan-1-one]
0.34 µM	C[C@@H]1CN[C@@H](C)CN1CCc1nc2ccc(-c3c[nH]c4cc(F)ccc34)cc2o1 (relative stereo) [Compound 141, 2-(2-(trans-2,5-dimethylpiperazin-1-yl)ethyl)-6-(6-fluoro-1H-indol-3-yl)benzo[d]oxazole]
0.46 µM	C[C@H]1CN(CCc2nc3ccc(-c4c[nH]c5cc(F)ccc45)cc3o2)C[C@H](C)N1 [Compound 144, (−)-2-(2-((3S,5S)-3,5-dimethylpiperazin-1-yl)ethyl)-6-(6-fluoro-1H-indol-3-yl)benzo[d]oxazole]
0.351 µM	COCCS(=O)(=O)NCc1nc2ccc(-c3c[nH]c4cc(F)ccc34)cc2o1 [Compound 99, N-((6-(6-fluoro-1H-indol-3-yl)benzo[d]oxazol-2-yl)methyl)-2-methoxyethanesulfonamide]
0.349 µM	CN1CCC[C@H]1C(=O)NCc1nc2ccc(-c3c[nH]c4cc(F)ccc34)cc2o1 [Compound 115, (S)—N-((6-(6-fluoro-1H-indol-3-yl)benzo[d]oxazol-2-yl)methyl)-1-methylpyrrolidine-2-carboxamide]
2.38 µM	NC(=O)Cn1c(=O)oc2cc(-c3c[nH]c4ccc(F)cc34)ccc21 [Compound 131, 2-(6-(5-fluoro-1H-indol-3-yl)-2-oxobenzo[d]oxazol-3(2H)-yl)acetamide]
0.597 µM	Fc1ccc2c(-c3ccc4oc(CN5CCOCC5)nc4c3)c[nH]c2c1 [Compound 63, 5-(6-fluoro-1H-indol-3-yl)-2-(morpholinomethyl)benzo[d]oxazole]
0.446 µM	c1ccc2c(-c3ccc4ncoc4c3)c[nH]c2c1 [Compound 109, 6-(1H-indol-3-yl)benzo[d]oxazole]
0.842 µM	CS(=O)(=O)CCc1nc2cc(-c3c[nH]c4cc(F)ccc34)ccc2o1 [Compound 80, 5-(6-fluoro-1H-indol-3-yl)-2-(2-(methylsulfonyl)ethyl)benzo[d]oxazole]
3.68 µM	CN1C(=O)c2cc(-c3c[nH]c4cc(F)ccc34)ccc2S1(=O)=O [Compound 138, 5-(6-fluoro-H-indol-3-yl)-2-methylbenzo[d]isothiazol-3(2H)-one 1,1-dioxide]
0.17 µM	CN(C)CCNC(=O)CCn1ncc2cc(-c3c[nH]c4cc(F)ccc34)ccc21 [Compound 88, N-(2-(dimethylamino)ethyl)-3-(5-(6-fluoro-H-indol-3-yl)-1H-indazol-1-yl)propanamide]
0.205 µM	O=C(CCn1ncc2cc(-c3c[nH]c4cc(F)ccc34)ccc21)NCCO [Compound 89, 3-(5-(6-fluoro-1H-indol-3-yl)-1H-indazol-1-yl)-N-(2-hydroxyethyl)propanamide]
